Results taken from US7671058B2, “N-(3,4-disubstituted phenyl) salicylamide derivatives” (Institute of Medicinal Molecular Design, Inc., priority 2006, dated 2010).

Legend:
STAT6 = STAT6 inhibition test: (GLS)x8/pTA-Luc luciferase reporter in U2-OS cells stimulated with human IL-4; assay type: cell-based; details: human IL-4 40 ng/mL; for Inhibition Rate of STAT6 (%): compound 2 μM, 8 hours; for IC50: from inhibition rates at 1, 0.1, 0.01 and 0.001 μM, read-out: IC50 against activation of STAT6
Excerpt: (1) Construction of a STAT6 Reporter Plasmid
The Oligonucleotides (SEQ ID: 1, 2) containing two copies of STAT6 binding sequences (refer to J. Biol. Chem., vol. 276, No. 9, pp. 6675-6688 (2001).) were synthesized, and integrated into the enhancer region of the reporter plasmid pTA-Luc Vector (CLONTECH Laboratories, Inc.) at the restriction enzyme BgIII site.
When the oligonucleotide is integrated in positive direction into the plasmid, the upstream BglII site is not reconstructed. Therefore, STAT6 binding sequences can be increased by repeating integration of the oligonucleotide at the restriction enzyme BglII site.
In the present test, a plasmid including eight integrated STAT6 binding sequences was constructed and provided for the reporter assay as (GLS)x8/pTA-Luc. Confirmation of the sequences was carried out using an automated fluorescence sequencer (Model 310 (Applied Biosystems)).
(2) Transfection into U2-OS Cells and Inhibition Test for STAT6 Activation
U2-OS cells were seeded to at 2×10^4 cells/well in 96-well culture plates, and transfection was carried out using FuGENE 6 Transfection Reagent (Roche Diagnostics GmbH). The procedures of the transfection are shown below.
11 μg of reporter plasmid ((GLS)x8/pTA-Luc) and 1.1 μg of pCMV β (CLONTECH Laboratories, Inc.) were mixed in 1.1 mL of OPTI-MEM I medium (GIBCO BRL) (solution (A)).
33 μL of FuGENE 6 Transfection Reagent was mixed in 1.1 mL of OPTI-MEM I medium (solution (B)).
(§1) The above solution (A) and solution (B) were mixed, let them stand for 15 minutes at room temperature, then, 8.8 mL of OPTI-MEM I medium was added and diluted.
To this transfection solution, U2-OS cell suspension (11 mL) in McCoy's 5A medium (GIBCO BRL) containing 10% Fetal Bovine Serum (FBS; GIBCO BRL) at 2×10^5 cells/mL was added and well mixed.
(§2) 0.2 mL of the above solution was dispensed into each well of 96-well culture plates, and incubated for 24 hours (37° C., 5% CO2).
After removal of 50 μL of medium from each well, 50 μL of McCoy's 5A medium (serum-free) containing compound, of the present application was added to a final concentration of 0.01˜2 μM (0.001, 0.01, 0.1, 0.5, 1 or 2 μM), and the plates were incubated for 2 hours (37° C., 5% CO2).
10 μL of the McCoy's 5A medium (serum-free) containing human IL-4 (R&D Systems, Inc) was added to each well to achieve a final concentration of 40 ng/mL, and incubated for 8 hours (37° C., 5% CO2).
(§3) Medium was completely removed and plates were preserved at −80° C. until measurements.
(§4) Cell lysates were prepared by adding 40 μL of Passive Lysis Buffer (Promega Corporation) to each well.
(§5) 10 μL of each lysate was transferred to 96-well white plates. 50 μL of PicaGene L.T.2.0 (TOYO INK MFG. CO., LTD.) was added to each well, then, luminescence was measured after leaving for 10 minutes at room temperature.
(§6) 10 μL of each lysate was transferred to 96-well black plates. 100 μL of Z Buffer (preparation method will be explained later) was added to each well, and fluorescence was measured immediately.
(§7) 10 μL of each lysate was transferred to 96-well clear plates. 200 μL of protein assay reagent prepared from the BCA Protein Assay Kit (Pierce Biotechnology, Inc.) was added to each well, and, absorbance was measured after incubation for 30 minutes at 37° C.
(§8) For measurements of luminescence, fluorescence, and absorbance, microplate reader GENios (TECAN G.M.B.H.) was used.
(4) Calculation of Inhibition Rate
Luminescence values that show the degree of activation by IL-4 stimulation were normalized by β-gal values that show transfection efficiency. Using the normalized values, the following calculations were carried out using the luminescence values increased by IL-4 stimulation. Inhibition Rate(%)=[…] E: In the presence of the compound of the present application, increased luminescence value by IL-4 stimulation C: Without the presence of the compound of the present application, increased luminescence value by IL-4 stimulation […]

NF-κB = NF-κB inhibition test: pNFκB-Luc luciferase reporter in U2-OS cells stimulated with human TNF α; assay type: cell-based; details: human TNF α 10 ng/mL; for Inhibition Rate of NF-κB (%): compound 2 μM, 8 hours; for IC50: from inhibition rates at 1, 0.1, 0.01 and 0.001 μM, read-out: IC50 against activation of NF-κB
Protocol: (1) Transfection to U2-OS Cells and Inhibition Test of Activation
U2-OS cells were seeded at 2×10^4 cells/well in 96-well culture plate, and transfection was carried out using FuGENE 6 Transfection Reagent (Roche Diagnostics GmbH). The procedures of the transfection are shown below.
11 μg of reporter plasmid (pNFκB-Luc; Stratagene Corporation) and 1.1 μg of pCMV β (CLONTECH Laboratories, Inc.) were mixed in 1.1 mL of OPTI-MEM I medium (GIBCO BRL) (solution (A)).
[…] of FuGENE 6 Transfection Reagent was mixed in 1.1 mL of OPTI-MEM I medium (solution (B)).
as §1
To this transfection solution, U2-OS cell suspension (11 mL) in McCoy's 5A medium (GIBCO BRL) containing 10% Fetal Bovine Serum (FBS; GIBCO BRL) at […] was added and well mixed.
as §2
After removal of 50 μL of medium from each well, 50 μL of McCoy's 5A medium (serum-free) containing compound of the present application was added to a final concentration of 0.01˜2 μM (0.001, 0.01, 0.1, 0.5, 1 or 2 μM), and the plates were incubated for 2 hours (37° C., 5% CO2).
10 μL of the McCoy's 5A medium (serum-free) containing human TNF α (PEPROTECH EC Ltd.) was added to each well to achieve a final concentration of 10 ng/mL, and incubated for 8 hours (37° C., 5% CO2).
as §3, §4, §5, §6, §7, §8
(3) Calculation of Inhibition Rate
Luminescence values that show the degree of activation by TNF α stimulation were normalized by β-gal values that show transfection efficiency. Using the normalized values, the following calculation was carried out using the luminescence values that increased by TNF α stimulation. Inhibition Rate(%)=[…] E: In the presence of the compound of the present application, increased luminescence values by TNF α stimulation C: Without the presence of the compound of the present application, increased luminescence values by TNF α, stimulation
The values of protein assay by BCA reagent were used for a simple assessment of cytotoxicity, and not used for the calculation of inhibition rates.
NF-κB Inhibition Rates are shown below. The values in parentheses in the table represent the concentration of the compound of the present application.
NF-κB inhibition rates where the concentrations of the compound of the present application were 1, 0.1, 0.01 and 0.001 μM were calculated, and the 50% inhibitory concentrations (IC50) of the compounds of the present application against activation of NF-κB were evaluated.

IC50 (STAT6) | IC50 (NF-κB) | SMILES | Inhibition Rate of STAT6 (%) (STAT6) | Inhibition Rate of NF-κB (%) (NF-κB)
 |  | O=C(Nc1ccc(N2CCSCC2)c(F)c1)c1cc(Cl)ccc1O [compound 26] | 95 (2 μM) % | 68 (2 μM) %
6.37 nM | 12.2 nM | O=C(Nc1ccc(OC2CCNCC2)c(F)c1)c1cc(Cl)ccc1O [compound 31] | 93 (2 μM) % | 92 (2 μM) %
5.88 nM | 13.7 nM | Cl.O=C(Nc1ccc(OC2CCNCC2)c(F)c1)c1cc(Cl)ccc1O [compound 32] | 92 (2 μM) % | 91 (2 μM) %
3.22 nM | 7.04 nM | CN1CCCN(c2ccc(NC(=O)c3cc(Cl)ccc3O)cc2F)CC1 [compound 34] | 94 (2 μM) % | 95 (2 μM) %
 |  | O=C(Nc1ccc(N2CCN(C(=O)CCN3CCCCC3)CC2)c(F)c1)c1cc(Cl)ccc1O [compound 35] | 26 (2 μM) % | 24 (2 μM) %
 |  | CN1CCC(Oc2ccc(NC(=O)c3cc(Cl)ccc3O)cc2F)C1 (centres unmarked) [compound 38] | 77 (2 μM) % | 64 (2 μM) %
 |  | O=C1CCN(c2ccc(NC(=O)c3cc(Cl)ccc3O)cc2F)CC1 [compound 39] | 46 (2 μM) % | 16 (2 μM) %
 |  | NC1CCN(c2ccc(NC(=O)c3cc(Cl)ccc3O)cc2F)C1 (centres unmarked) [compound 42] | 41 (2 μM) % | 24 (2 μM) %
 |  | O=C(Nc1ccc(N2CCC(O)CC2)c(F)c1)c1cc(Cl)ccc1O [compound 43] | 46 (2 μM) % | 32 (2 μM) %
7.51 nM | 15.7 nM | O=C(Nc1ccc(N2CCCNCC2)c(F)c1)c1cc(Cl)ccc1O [compound 44] | 94 (2 μM) % | 94 (2 μM) %
 |  | Cl.O=C(Nc1ccc(OCC2CCNCC2)c(F)c1)c1cc(Cl)ccc1O [compound 45] | 76 (2 μM) % | 68 (2 μM) %
7.98 nM | 14 nM | Cl.NCC1CCN(c2ccc(NC(=O)c3cc(Cl)ccc3O)cc2F)CC1 [compound 47] | 96 (2 μM) % | 95 (2 μM) %
 |  | NC(=O)C1CCCN(c2ccc(NC(=O)c3cc(Cl)ccc3O)cc2F)C1 (centres unmarked) [compound 48] | 42 (2 μM) % | 40 (2 μM) %
14.8 nM | 28.4 nM | Cl.O=C(Nc1ccc(OCC2CCCNC2)c(F)c1)c1cc(Cl)ccc1O (centres unmarked) [compound 49] | 84 (2 μM) % | 87 (2 μM) %
 |  | CN1CCCC(COc2ccc(NC(=O)c3cc(Cl)ccc3O)cc2F)C1 (centres unmarked) [compound 50] | 43 (2 μM) % | 45 (2 μM) %
9 nM | 17.9 nM | CN1CCC(COc2ccc(NC(=O)c3cc(Cl)ccc3O)cc2F)CC1 [compound 51] | 83 (2 μM) % | 86 (2 μM) %
 |  | O=C(Nc1ccc(N2CCCN(Cc3ccccc3)CC2)c(F)c1)c1cc(Cl)ccc1O [compound 52] | 55 (2 μM) % | 27 (2 μM) %
 |  | CCN1CCCN(c2ccc(NC(=O)c3cc(Cl)ccc3O)cc2F)CC1 [compound 53] | 57 (2 μM) % | 45 (2 μM) %
15 nM | 43.5 nM | Cl.NCC1CCCN(c2ccc(NC(=O)c3cc(Cl)ccc3O)cc2F)C1 (centres unmarked) [compound 54] | 89 (2 μM) % | 84 (2 μM) %
 |  | Cl.O=C(Nc1ccc(OC2CCNC2)c(F)c1)c1cc(Cl)ccc1O (centres unmarked) [compound 55] | 35 (2 μM) % | 16 (2 μM) %
 |  | Cc1ccc(O)c(C(=O)Nc2ccc(N3CCN(C)CC3)c(F)c2)c1.Cl [compound 57] | 75 (2 μM) % | 62 (2 μM) %
 |  | CN1CCN(c2ccc(NC(=O)c3ccc(F)cc3O)cc2F)CC1.Cl [compound 58] | 70 (2 μM) % | 59 (2 μM) %
 |  | CN1CCN(c2ccc(NC(=O)c3cc(F)ccc3O)cc2F)CC1.Cl [compound 59] | 60 (2 μM) % | 43 (2 μM) %
 |  | CN1CCN(c2ccc(NC(=O)c3cccc(Cl)c3O)cc2F)CC1.Cl [compound 60] | 26 (2 μM) % | 16 (2 μM) %
 |  | CN1CCN(c2ccc(NC(=O)c3ccc(Cl)cc3O)cc2F)CC1.Cl [compound 61] | 86 (2 μM) % | 80 (2 μM) %
 |  | CN1CCN(c2ccc(NC(=O)c3cc(C(F)(F)F)ccc3O)cc2F)CC1.Cl [compound 62] | 96 (2 μM) % | 89 (2 μM) %
 |  | NC1CCC(Oc2ccc(NC(=O)c3cc(Cl)ccc3O)cc2F)CC1 (centres unmarked) [compound 65] | 42 (2 μM) % | 20 (2 μM) %
3.79 nM | 9.74 nM | NC1CCN(c2ccc(NC(=O)c3cc(Cl)ccc3O)cc2F)CC1 [compound 66] | 85 (2 μM) % | 92 (2 μM) %
